The inhibition is how much of the control response was suppressed.

From publication PMC7570694, “Design, Synthesis, and Structure–Activity Relationships of Thiazole Analogs as Anticholinesterase Agents for Alzheimer’s Disease” (Molecules, 2020) come the findings set out here.

One test addresses BChE (Equus caballus, UniProt P81908). Nature of the test: biochemical. The settings on record: mean ± SD; for inhibition at 1000 µM: read-out: BChE % Inhibition 10^−3 M, compound at 10^−3 M; for inhibition at 100 µM: read-out: BChE % Inhibition 10^−4 M, compound at 10^−4 M. As for the experimental part: (§1) The reagents and materials used in the enzyme inhibition assay were supplied commercially from Sigma-Aldrich (St. Louis, MO, USA) and Fluka (Steinheim, Germany). The cholinesterase enzyme inhibition procedure was applied as previously reported in our research papers.
(§2) Moreover, the IC50 values were calculated with the help of GraphPad ‘PRISM’ software (version 5.0) by using a dose–response curve achieved by plotting the percentage inhibition versus the log concentration.
(§3) All of the attained 3-((2-(4-(4-(trifluoromethyl)phenyl)thiazol-2-yl)hydrazineylidene)methyl)-substituedphenyl derivatives were investigated with regard to their ability to inhibit the activity of cholinesterase enzymes using the in vitro modified Ellman’s spectrophotometric method previously described.
(§4) Therefore, the IC50 values of the selected compounds and reference agents were calculated.

For test [1], the target named is T1, AChE (Electrophorus electricus, UniProt O42275). Nature of the test: AChE inhibition, modified Ellman spectrophotometric method. The format is biochemical. The settings on record: for inhibition at 10 µM: read-out: AChE % Inhibition 10^-5 M; for inhibition at 1 µM: read-out: AChE % Inhibition 10^-6 M; for inhibition at 0.1 µM: read-out: AChE % Inhibition 10^-7 M; for inhibition at 0.01 µM: read-out: AChE % Inhibition 10^-8 M; for inhibition at 0.001 µM: read-out: AChE % Inhibition 10^-9 M; for inhibition at 1000 µM: read-out: AChE % Inhibition 10^−3 M; for inhibition at 100 µM: read-out: AChE % Inhibition 10^−4 M. Here is the method: as §1, §2, §3, §4
On the technique in general: DTNB colorimetry detects thiols as they appear.

For test [2], the target named is T1, AChE. As to the kind of experiment: Kinetic studies of AChE inhibition (Lineweaver–Burk plots, substrate ATC). The settings on record: Lineweaver–Burk plot; IC50/2, IC50, 2xIC50; ATC 600–18.75 µM. The test is classed as biochemical.
Method: For this purpose, this compound was prepared at different concentrations (IC50, 2xIC50 and IC50/2). […] The Ki values of the compound were easily calculated from the second plot with a common intercept on the x-axis (corresponding to −Ki).
Enzyme kinetics studies were conducted to determine the mechanism of inhibition of AChE using a procedure similar to that of the inhibition assay for cholinesterase enzymes. […] Linear Lineweaver–Burk graphs were used to estimate the type of inhibition of this compound.
According to the Lineweaver–Burk plots, the type of inhibition consists of two general classes: reversible or irreversible.

BChE, sequence (P81908 whole entry): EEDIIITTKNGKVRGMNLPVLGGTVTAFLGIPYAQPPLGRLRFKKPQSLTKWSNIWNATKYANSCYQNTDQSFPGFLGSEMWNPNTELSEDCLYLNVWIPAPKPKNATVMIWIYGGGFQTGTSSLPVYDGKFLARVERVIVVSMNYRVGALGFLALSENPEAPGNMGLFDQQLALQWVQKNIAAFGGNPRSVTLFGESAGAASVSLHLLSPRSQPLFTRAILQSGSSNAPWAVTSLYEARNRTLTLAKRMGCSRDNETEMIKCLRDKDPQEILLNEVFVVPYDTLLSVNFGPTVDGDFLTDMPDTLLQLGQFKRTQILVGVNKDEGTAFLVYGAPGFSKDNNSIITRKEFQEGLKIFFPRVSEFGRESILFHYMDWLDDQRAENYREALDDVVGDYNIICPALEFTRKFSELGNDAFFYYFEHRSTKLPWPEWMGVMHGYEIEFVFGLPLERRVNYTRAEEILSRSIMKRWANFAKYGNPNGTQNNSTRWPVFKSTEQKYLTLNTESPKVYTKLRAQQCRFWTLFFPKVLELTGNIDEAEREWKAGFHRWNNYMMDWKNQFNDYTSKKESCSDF
T1 sequence (O42275 24-633): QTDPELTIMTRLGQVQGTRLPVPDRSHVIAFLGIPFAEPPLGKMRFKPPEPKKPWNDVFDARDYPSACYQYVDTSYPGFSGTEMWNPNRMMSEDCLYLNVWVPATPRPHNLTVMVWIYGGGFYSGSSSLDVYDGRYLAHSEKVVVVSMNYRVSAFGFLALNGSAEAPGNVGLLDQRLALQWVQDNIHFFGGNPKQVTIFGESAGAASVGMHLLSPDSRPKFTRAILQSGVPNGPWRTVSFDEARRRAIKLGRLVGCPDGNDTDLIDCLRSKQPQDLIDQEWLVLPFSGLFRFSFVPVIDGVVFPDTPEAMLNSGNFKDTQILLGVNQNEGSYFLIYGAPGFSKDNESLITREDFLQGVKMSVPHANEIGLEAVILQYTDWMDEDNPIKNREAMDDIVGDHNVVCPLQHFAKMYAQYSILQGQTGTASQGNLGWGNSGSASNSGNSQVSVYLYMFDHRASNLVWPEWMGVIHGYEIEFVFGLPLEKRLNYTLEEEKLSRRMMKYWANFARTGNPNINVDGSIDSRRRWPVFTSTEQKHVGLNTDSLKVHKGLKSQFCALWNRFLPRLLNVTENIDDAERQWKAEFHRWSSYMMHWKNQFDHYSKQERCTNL

Regarding `Oc1cccc(C=NNc2nc(-c3ccc(C(F)(F)F)cc3)cs2)c1` [2a, 3-[(2-{4-[4-(Trifluoromethyl)phenyl]thiazol-2-yl}hydrazineylidene)methyl]phenol], on BChE, the inhibition at 1000 µM is greater than 50% and the inhibition at 100 µM amounted to 42.5 ± 0.978%. Also, at AChE [1], the inhibition at 10 µM amounted to 81.2%, the inhibition at 1 µM was 74.2%, the inhibition at 0.1 µM worked out at 61% and the inhibition at 0.01 µM turned out to be 41.3%. On AChE [1], the inhibition at 0.001 µM is 20.4%, the inhibition at 1000 µM amounted to 93.4 ± 1.65% and the inhibition at 100 µM is 90.5 ± 1.32%.

As for `Oc1ccc(C=NNc2nc(-c3ccc(C(F)(F)F)cc3)cs2)cc1` [2b, 4-[(2-{4-[4-(Trifluoromethyl)phenyl]thiazol-2-yl}hydrazineylidene)methyl]phenol], at BChE, the inhibition at 1000 µM was greater than 50% and the inhibition at 100 µM came to 40.5 ± 0.71%. On AChE [1], the inhibition at 10 µM was determined as 74.6%, the inhibition at 1 µM was 63.8%, the inhibition at 0.1 µM is 58% and the inhibition at 0.01 µM was determined as 43.9%. Also, at AChE [1], the inhibition at 0.001 µM turned out to be 21.2%, the inhibition at 1000 µM is 90.3 ± 1.45% and the inhibition at 100 µM is 82.2 ± 1.48%.

With `Oc1cccc(C=NNc2nc(-c3ccc(C(F)(F)F)cc3)cs2)c1O` [2c, 3-[(2-{4-[4-(Trifluoromethyl)phenyl]thiazol-2-yl}hydrazineylidene)methyl]benzene-1,2-diol], the inhibition at 1000 µM at BChE stood at 43.6 ± 0.955%; at AChE [1], 78.2 ± 1.02%. For the same compound, the inhibition at 100 µM stood at 32.5 ± 0.721% on BChE and 45.1 ± 0.971% on AChE [1].

Turning to `COc1ccccc1C=NNc1nc(-c2ccc(C(F)(F)F)cc2)cs1` [2d, 2-[2-(2-Methoxybenzylidene)hydrazineyl]-4-[4-(trifluoromethyl)phenyl]thiazole], on BChE, the inhibition at 1000 µM was greater than 50% and the inhibition at 100 µM was 43.8 ± 0.895%. On AChE [1], the “AChE inhibition profile in words” value is recorded as “moderate”, the inhibition at 10 µM was 78.1%, the inhibition at 1 µM amounted to 67.3% and the inhibition at 0.1 µM was determined as 55.9%. On AChE [1], the inhibition at 0.01 µM was found to be 38.2%, the inhibition at 0.001 µM came out at 29.8%, the inhibition at 1000 µM was found to be 89.5 ± 2.04% and the inhibition at 100 µM amounted to 82.4 ± 1.7%.

Take `COc1cccc(C=NNc2nc(-c3ccc(C(F)(F)F)cc3)cs2)c1` [2e, 2-[2-(3-Methoxybenzylidene)hydrazineyl]-4-[4-(trifluoromethyl)phenyl]thiazole]: at BChE, the inhibition at 1000 µM is greater than 50% and the inhibition at 100 µM amounted to 41.6 ± 0.907%. For the same compound, on AChE [1], the inhibition at 10 µM came to 81.8%, the inhibition at 1 µM was determined as 74.8%, the inhibition at 0.1 µM stood at 62.4% and the inhibition at 0.01 µM was determined as 44.3%. Besides, at AChE [1], the inhibition at 0.001 µM came out at 21.6%, the inhibition at 1000 µM was found to be 90.6 ± 1.81% and the inhibition at 100 µM is 85.4 ± 1.73%.

For `COc1cccc(C=NNc2nc(-c3ccc(C(F)(F)F)cc3)cs2)c1OC` [2f, 2-[2-(2,3-Dimethoxybenzylidene)hydrazineyl]-4-[4-(trifluoromethyl)phenyl]thiazole], the figures for the inhibition at 1000 µM on BChE and at AChE [1] were 40.9 ± 0.895% and 71.7 ± 1.4%, respectively. Also, the inhibition at 100 µM turned out to be 31.5 ± 0.82% at BChE and 40.5 ± 0.89% on AChE [1].

As to `COc1ccc(C=NNc2nc(-c3ccc(C(F)(F)F)cc3)cs2)cc1OC` [2g, 2-[2-(3,4-Dimethoxybenzylidene)hydrazineyl]-4-[4-(trifluoromethyl)phenyl]thiazole], at BChE, the inhibition at 1000 µM was greater than 50% and the inhibition at 100 µM is 40.4 ± 0.845%. Further, at AChE [1], the inhibition at 10 µM worked out at 81.5%, the inhibition at 1 µM came out at 76.9%, the inhibition at 0.1 µM was 69.2% and the inhibition at 0.01 µM was 43.1%. In addition, at AChE [1], the inhibition at 0.001 µM came out at 24.9%, the inhibition at 1000 µM was determined as 93.5 ± 1.63% and the inhibition at 100 µM was 88.3 ± 1.6%.

As to `FC(F)(F)c1ccc(-c2csc(NN=Cc3ccc4c(c3)OCO4)n2)cc1` [2h, 2-[2-(Benzo[1,3]dioxol-5-ylmethylene)hydrazineyl]-4-[4-(trifluoromethyl)phenyl]thiazole], on BChE, the inhibition at 1000 µM turned out to be 45.8 ± 0.926% and the inhibition at 100 µM amounted to 34.3 ± 0.738%. Besides, on AChE [1], the inhibition at 1000 µM was 77.6 ± 1.76% and the inhibition at 100 µM is 41.9 ± 0.976%.

As to `COc1ccc(C=NNc2nc(-c3ccc(C(F)(F)F)cc3)cs2)cc1O` [2i, 2-Methoxy-5-[(2-{4-[4-(trifluoromethyl)phenyl]thiazol-2-yl}hydrazineylidene)methyl]phenol], on BChE, the inhibition at 1000 µM was greater than 50% and the inhibition at 100 µM was 41.5 ± 0.87%. In addition, on AChE [1], the inhibition at 10 µM is 86.6%, the inhibition at 1 µM amounted to 81%, the inhibition at 0.1 µM was 71.8% and the inhibition at 0.01 µM was 42.7%. Further, on AChE [1], the inhibition at 0.001 µM was 22.2%, the inhibition at 1000 µM is 95.2 ± 1.5% and the inhibition at 100 µM is 92.1 ± 1.8%. In addition, the “type of inhibition of AChE” value at AChE [2] is “reversible and mixed-type”.

`COc1ccc(O)c(C=NNc2nc(-c3ccc(C(F)(F)F)cc3)cs2)c1` [2j, 4-Methoxy-2-[(2-{4-[4-(trifluoromethyl)phenyl]thiazol-2-yl}hydrazineylidene)methyl]phenol]: at BChE, the inhibition at 1000 µM is greater than 50% and the inhibition at 100 µM was found to be 39.6 ± 0.865%. For the same compound, at AChE [1], the “AChE inhibition profile in words” value is reported as “moderate”, the inhibition at 10 µM was 76.8%, the inhibition at 1 µM amounted to 62.1% and the inhibition at 0.1 µM turned out to be 57.4%. Also, on AChE [1], the inhibition at 0.01 µM amounted to 40.7%, the inhibition at 0.001 µM was 25.6%, the inhibition at 1000 µM was found to be 91.3 ± 2.11% and the inhibition at 100 µM amounted to 84.9 ± 1.37%.

`COc1cc(C=NNc2nc(-c3ccc(C(F)(F)F)cc3)cs2)cc(OC)c1OC` [2k, 4-[4-(Trifluoromethyl)phenyl]-2-[2-(3,4,5-trimethoxybenzylidene)hydrazineyl]thiazole]: the inhibition at 1000 µM at BChE came out at 40.2 ± 0.902%; at AChE [1], 65.3 ± 1.04%. In addition, the values for the inhibition at 100 µM on BChE and at AChE [1] were 25.6 ± 0.633% and 40.8 ± 0.94%, respectively.

Take `COc1cc(C=NNc2nc(-c3ccc(C(F)(F)F)cc3)cs2)cc(OC)c1O` [2l, 2,6-Dimethoxy-4-[(2-{4-[4-(trifluoromethyl)phenyl]thiazol-2-yl}hydrazineylidene)methyl]phenol]: the inhibition at 1000 µM came out at 38.7 ± 0.815% at BChE and 62.8 ± 1.28% at AChE [1]. The inhibition at 100 µM stood at 23.2 ± 0.759% at BChE and 35.4 ± 0.895% on AChE [1].
